# Measurements from PMC9653409, “Generative deep learning enables the discovery of a potent and selective RIPK1 inhibitor” (Nature Communications, 2022).
# Like-named read-outs stand apart in the source and are kept apart here.
# Assays:
# Experiment in all cases: Kinase inhibitory activity profiling of RI-962@10 µM (406 kinases, Eurofins)
# Format in all cases: biochemical
# [1] = biological target: panel of human kinases (kinase named in endpoint) (Homo sapiens, UniProt P10721, D816H); settings: 10 µM; read-out: Activity (%), cKit(D816H)(h)
# panel of human kinases (kinase named in endpoint) (Homo sapiens, UniProt P10721, D816H), sequence (P10721 26-976 D816H): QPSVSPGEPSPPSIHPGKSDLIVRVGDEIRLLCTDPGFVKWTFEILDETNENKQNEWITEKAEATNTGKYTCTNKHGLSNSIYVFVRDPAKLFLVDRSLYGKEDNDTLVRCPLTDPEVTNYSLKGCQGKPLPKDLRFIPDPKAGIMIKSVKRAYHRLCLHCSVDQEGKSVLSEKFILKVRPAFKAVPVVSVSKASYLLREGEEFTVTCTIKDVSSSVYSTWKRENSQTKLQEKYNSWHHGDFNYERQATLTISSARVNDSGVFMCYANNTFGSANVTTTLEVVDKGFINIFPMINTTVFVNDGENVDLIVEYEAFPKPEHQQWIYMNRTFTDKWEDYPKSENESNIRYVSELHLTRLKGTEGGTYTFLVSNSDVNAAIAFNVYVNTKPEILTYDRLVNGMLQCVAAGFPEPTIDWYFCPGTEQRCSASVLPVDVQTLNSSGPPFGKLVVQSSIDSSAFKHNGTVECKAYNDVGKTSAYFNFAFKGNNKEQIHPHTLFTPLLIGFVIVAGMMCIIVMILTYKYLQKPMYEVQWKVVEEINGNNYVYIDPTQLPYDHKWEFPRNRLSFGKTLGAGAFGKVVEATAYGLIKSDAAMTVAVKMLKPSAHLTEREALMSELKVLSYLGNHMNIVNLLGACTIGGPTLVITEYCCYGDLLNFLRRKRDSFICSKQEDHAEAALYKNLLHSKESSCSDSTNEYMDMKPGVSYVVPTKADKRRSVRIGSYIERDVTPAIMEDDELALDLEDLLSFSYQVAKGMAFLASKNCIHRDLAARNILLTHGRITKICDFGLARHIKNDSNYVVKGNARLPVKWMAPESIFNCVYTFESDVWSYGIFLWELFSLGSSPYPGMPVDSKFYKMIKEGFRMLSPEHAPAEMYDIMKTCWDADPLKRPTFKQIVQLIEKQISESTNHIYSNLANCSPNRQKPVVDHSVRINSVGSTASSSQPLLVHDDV
# Outline: (§1)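 Radiometric filter-binding kinase assays: enzyme preincubated 15 min with compound in 8 mM MOPS pH 7.0, 0.2 mM EDTA, 250 μM peptide substrate, 10 mM magnesium acetate, 10 μM [γ-33P]-ATP. Reaction started with Mg/ATP, run 40 min at room temperature, stopped with phosphoric acid; 33P incorporation read by scintillation counting. Other kinases by similar protocols.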
# [2] = biological target: panel of human kinases (kinase named in endpoint) (Homo sapiens, UniProt P43405); settings: 10 µM; read-out: Activity (%), Syk(h)
# Outline: as §1
# [3] = biological target: panel of human kinases (kinase named in endpoint) (Homo sapiens, UniProt Q96BR1); settings: 10 µM; read-out: Activity (%), SGK3(h)
# Outline: as §1
# [4] = biological target: panel of human kinases (kinase named in endpoint) (Homo sapiens, UniProt P49759); settings: 10 µM; read-out: Activity (%), CLK1(h)
# Outline: as §1
# [5] = biological target: panel of human kinases (kinase named in endpoint) (Homo sapiens, UniProt Q8N4C8); settings: 10 µM; read-out: Activity (%), MINK(h)
# Outline: as §1
# [6] = biological target: panel of human kinases (kinase named in endpoint) (Homo sapiens, UniProt P07333, Y969C); settings: 10 µM; read-out: Activity (%), Fms(Y969C)(h)
# Outline: as §1
# [7] = biological target: panel of human kinases (kinase named in endpoint) (Homo sapiens, UniProt P36507); settings: 10 µM; read-out: Activity (%), MEK2(h)
# panel of human kinases (kinase named in endpoint) (Homo sapiens, UniProt P36507), sequence (P36507 whole entry): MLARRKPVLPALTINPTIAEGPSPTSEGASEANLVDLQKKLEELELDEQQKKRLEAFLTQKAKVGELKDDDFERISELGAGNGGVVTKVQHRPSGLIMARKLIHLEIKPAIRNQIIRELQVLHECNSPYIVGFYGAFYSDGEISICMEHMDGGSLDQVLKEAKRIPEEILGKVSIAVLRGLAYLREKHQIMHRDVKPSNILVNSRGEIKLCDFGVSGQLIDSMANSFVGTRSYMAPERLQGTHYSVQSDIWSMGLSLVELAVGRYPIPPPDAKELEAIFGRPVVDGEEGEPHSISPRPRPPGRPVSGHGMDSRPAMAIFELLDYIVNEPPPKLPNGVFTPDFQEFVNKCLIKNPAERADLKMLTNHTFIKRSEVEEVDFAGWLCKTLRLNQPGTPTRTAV
# Outline: as §1
# [8] = biological target: panel of human kinases (kinase named in endpoint) (Homo sapiens, UniProt Q07912); settings: 10 µM; read-out: Activity (%), ACK1(h)
# Outline: as §1
# [9] = biological target: panel of human kinases (kinase named in endpoint) (Homo sapiens, UniProt P16234); settings: 10 µM; read-out: Activity (%), PDGFRα(h)
# Outline: as §1
# [10] = biological target: panel of human kinases (kinase named in endpoint) (Homo sapiens, UniProt P35626); settings: 10 µM; read-out: Activity (%), GRK3(h)
# panel of human kinases (kinase named in endpoint) (Homo sapiens, UniProt P35626), sequence (P35626 whole entry): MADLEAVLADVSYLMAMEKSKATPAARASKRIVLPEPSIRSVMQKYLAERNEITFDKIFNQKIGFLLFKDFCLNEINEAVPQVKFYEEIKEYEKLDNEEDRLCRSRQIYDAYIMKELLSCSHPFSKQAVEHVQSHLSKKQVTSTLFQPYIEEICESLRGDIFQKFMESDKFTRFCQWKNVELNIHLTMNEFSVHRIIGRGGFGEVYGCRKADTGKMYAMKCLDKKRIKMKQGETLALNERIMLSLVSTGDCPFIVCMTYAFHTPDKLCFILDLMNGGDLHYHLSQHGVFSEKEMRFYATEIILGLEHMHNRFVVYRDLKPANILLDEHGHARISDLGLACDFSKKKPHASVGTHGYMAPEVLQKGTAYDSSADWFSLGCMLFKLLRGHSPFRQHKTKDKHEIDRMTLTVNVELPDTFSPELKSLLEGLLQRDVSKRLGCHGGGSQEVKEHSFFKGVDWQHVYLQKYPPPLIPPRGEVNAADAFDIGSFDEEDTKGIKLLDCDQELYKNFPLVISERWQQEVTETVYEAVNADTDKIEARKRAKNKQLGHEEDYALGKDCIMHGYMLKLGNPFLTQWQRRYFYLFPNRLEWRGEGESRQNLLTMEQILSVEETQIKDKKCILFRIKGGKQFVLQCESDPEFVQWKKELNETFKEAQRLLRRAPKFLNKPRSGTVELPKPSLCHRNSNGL
# Outline: as §1
# [11] = biological target: panel of human kinases (kinase named in endpoint) (Homo sapiens, UniProt P04049); settings: 10 µM; read-out: Activity (%), c-RAF(h)
# panel of human kinases (kinase named in endpoint) (Homo sapiens, UniProt P04049), sequence (P04049 whole entry): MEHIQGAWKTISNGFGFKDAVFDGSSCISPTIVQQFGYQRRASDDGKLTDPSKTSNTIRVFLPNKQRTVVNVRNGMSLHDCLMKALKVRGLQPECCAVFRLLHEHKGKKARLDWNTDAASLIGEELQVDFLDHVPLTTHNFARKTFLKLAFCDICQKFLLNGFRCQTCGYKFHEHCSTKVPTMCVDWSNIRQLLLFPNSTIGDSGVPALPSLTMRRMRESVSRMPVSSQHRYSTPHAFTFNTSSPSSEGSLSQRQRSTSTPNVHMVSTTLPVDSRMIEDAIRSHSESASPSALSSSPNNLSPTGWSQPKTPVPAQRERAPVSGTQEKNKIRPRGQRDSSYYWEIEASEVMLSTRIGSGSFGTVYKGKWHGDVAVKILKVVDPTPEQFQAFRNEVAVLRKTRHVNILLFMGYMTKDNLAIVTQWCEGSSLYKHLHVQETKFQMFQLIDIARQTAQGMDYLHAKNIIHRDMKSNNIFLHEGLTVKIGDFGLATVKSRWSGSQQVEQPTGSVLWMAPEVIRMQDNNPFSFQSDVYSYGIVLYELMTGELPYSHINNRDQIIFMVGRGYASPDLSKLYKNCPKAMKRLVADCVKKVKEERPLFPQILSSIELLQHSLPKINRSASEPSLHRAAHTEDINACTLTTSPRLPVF
# Outline: as §1
# [12] = biological target: panel of human kinases (kinase named in endpoint) (Homo sapiens, UniProt P68400); settings: 10 µM
# panel of human kinases (kinase named in endpoint) (Homo sapiens, UniProt P68400), sequence (P68400 whole entry): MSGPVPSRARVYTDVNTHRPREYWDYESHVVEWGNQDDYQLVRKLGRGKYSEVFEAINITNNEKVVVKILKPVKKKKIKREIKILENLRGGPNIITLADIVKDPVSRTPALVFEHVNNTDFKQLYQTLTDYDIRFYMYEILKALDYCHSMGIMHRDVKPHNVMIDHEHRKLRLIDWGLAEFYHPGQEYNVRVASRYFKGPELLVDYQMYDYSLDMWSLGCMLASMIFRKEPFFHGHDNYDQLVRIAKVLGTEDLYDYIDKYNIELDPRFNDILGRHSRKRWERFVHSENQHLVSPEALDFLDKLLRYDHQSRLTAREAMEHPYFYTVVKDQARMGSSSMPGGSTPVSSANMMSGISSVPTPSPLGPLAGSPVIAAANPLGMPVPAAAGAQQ
# Outline: as §1
# [13] = biological target: panel of human kinases (kinase named in endpoint) (Homo sapiens, UniProt P09619); settings: 10 µM; read-out: Activity (%), PDGFRβ(h)
# Outline: as §1
# [14] = biological target: panel of human kinases (kinase named in endpoint) (Homo sapiens, UniProt P17252); settings: 10 µM; read-out: Activity (%), PKCα(h)
# Outline: as §1
# [15] = biological target: panel of human kinases (kinase named in endpoint) (Homo sapiens, UniProt P08922); settings: 10 µM; read-out: Activity (%), Ros(h)
# Outline: as §1
# [16] = biological target: panel of human kinases (kinase named in endpoint) (Homo sapiens, UniProt Q9UQM7); settings: 10 µM; read-out: Activity (%), CaMKIIα(h)
# Outline: as §1
# [17] = biological target: panel of human kinases (kinase named in endpoint) (Homo sapiens, UniProt P00519, H396P); settings: 10 µM; read-out: Activity (%), Abl (H396P) (h)
# Outline: as §1
# [18] = biological target: panel of human kinases (kinase named in endpoint) (Homo sapiens, UniProt P48736); settings: 10 µM; read-out: Activity (%), PI3 Kinase (p120g)(h)
# Outline: as §1
# [19] = biological target: panel of human kinases (kinase named in endpoint) (Homo sapiens, UniProt Q9P0L2); settings: 10 µM; read-out: Activity (%), MARK1(h)
# panel of human kinases (kinase named in endpoint) (Homo sapiens, UniProt Q9P0L2), sequence (Q9P0L2 whole entry): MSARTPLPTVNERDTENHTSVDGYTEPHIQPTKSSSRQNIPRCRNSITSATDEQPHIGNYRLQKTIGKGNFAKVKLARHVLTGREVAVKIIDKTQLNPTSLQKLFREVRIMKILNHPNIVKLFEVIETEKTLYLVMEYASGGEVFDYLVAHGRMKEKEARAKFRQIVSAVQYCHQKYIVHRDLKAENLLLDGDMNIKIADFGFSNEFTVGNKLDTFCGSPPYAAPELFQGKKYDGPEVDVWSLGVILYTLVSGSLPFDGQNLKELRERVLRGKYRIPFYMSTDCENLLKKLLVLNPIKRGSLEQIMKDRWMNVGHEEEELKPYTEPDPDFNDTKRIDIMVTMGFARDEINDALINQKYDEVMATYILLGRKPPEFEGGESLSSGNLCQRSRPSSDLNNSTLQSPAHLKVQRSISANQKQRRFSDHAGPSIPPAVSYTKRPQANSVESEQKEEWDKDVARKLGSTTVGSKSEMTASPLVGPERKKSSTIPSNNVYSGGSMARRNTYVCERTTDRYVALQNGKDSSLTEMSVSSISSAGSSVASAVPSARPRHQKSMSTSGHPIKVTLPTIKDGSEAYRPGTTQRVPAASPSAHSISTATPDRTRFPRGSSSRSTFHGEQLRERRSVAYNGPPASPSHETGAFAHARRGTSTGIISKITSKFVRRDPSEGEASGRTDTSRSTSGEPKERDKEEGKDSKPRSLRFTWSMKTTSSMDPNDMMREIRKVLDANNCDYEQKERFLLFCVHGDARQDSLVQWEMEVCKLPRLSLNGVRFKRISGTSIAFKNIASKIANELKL
# Outline: as §1
# [20] = biological target: panel of human kinases (kinase named in endpoint) (Homo sapiens, UniProt P00519); settings: 10 µM; read-out: Activity (%), Abl(h)
# Outline: as §1
# [21] = biological target: panel of human kinases (kinase named in endpoint) (Homo sapiens, UniProt P08581, Y1230D); settings: 10 µM; read-out: Activity (%), Met(Y1248D)(h)
# Outline: as §1
# [22] = biological target: panel of human kinases (kinase named in endpoint) (Homo sapiens, UniProt Q16513); settings: 10 µM; read-out: Activity (%), PRK2(h)
# Outline: as §1
# [23] = biological target: panel of human kinases (kinase named in endpoint) (Homo sapiens, UniProt Q9HCP0); settings: 10 µM; read-out: Activity (%), CK1γ1(h)
# panel of human kinases (kinase named in endpoint) (Homo sapiens, UniProt Q9HCP0), sequence (Q9HCP0 whole entry): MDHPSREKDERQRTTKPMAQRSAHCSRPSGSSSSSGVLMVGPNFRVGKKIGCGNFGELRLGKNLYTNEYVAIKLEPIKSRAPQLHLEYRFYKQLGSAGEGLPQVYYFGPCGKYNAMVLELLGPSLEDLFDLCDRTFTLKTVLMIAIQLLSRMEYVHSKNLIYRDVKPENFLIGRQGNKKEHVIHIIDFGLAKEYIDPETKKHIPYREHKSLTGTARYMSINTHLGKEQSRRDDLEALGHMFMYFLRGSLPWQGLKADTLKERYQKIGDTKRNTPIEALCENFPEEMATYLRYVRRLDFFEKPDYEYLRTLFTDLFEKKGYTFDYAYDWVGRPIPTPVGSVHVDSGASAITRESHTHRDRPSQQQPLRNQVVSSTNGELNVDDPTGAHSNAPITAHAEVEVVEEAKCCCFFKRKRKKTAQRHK
# Outline: as §1
# [24] = biological target: panel of human kinases (kinase named in endpoint) (Homo sapiens, UniProt Q13557); settings: 10 µM; read-out: Activity (%), CaMKIIδ(h)
# panel of human kinases (kinase named in endpoint) (Homo sapiens, UniProt Q13557), sequence (Q13557 whole entry): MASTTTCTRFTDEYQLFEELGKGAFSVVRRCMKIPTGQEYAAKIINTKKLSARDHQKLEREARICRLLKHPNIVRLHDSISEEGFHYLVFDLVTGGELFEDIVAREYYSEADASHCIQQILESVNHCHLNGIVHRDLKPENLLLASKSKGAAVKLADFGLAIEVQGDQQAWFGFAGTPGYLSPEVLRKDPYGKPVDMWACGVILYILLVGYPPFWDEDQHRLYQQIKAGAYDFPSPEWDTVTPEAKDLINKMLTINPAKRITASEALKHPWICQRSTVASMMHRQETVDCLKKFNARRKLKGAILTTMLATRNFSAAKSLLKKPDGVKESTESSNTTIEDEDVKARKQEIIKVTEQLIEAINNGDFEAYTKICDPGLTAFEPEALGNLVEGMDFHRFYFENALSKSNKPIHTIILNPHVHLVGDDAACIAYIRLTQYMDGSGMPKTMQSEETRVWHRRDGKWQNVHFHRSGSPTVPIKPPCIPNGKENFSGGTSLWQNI
# Outline: as §1
# [25] = biological target: panel of human kinases (kinase named in endpoint) (Homo sapiens, UniProt P05771); settings: 10 µM; read-out: Activity (%), PKCβI(h)
# Outline: as §1
smiles,measurement,setting,value
CC(C)C(=O)Nc1nc2cc(-c3ccc4c(c3)c(C(=O)NC(C)c3ccccc3)cn4C)ccn2n1 (centres unmarked) [RI-962],activity at 10 µM,[1],142%
same,activity at 10 µM,[2],55%
same,activity at 10 µM,[3],132%
same,activity at 10 µM,[4],109%
same,activity at 10 µM,[5],63%
same,activity at 10 µM,[6],73%
same,activity at 10 µM,[7],86%
same,activity at 10 µM,[8],100%
same,activity at 10 µM,[9],99%
same,activity at 10 µM,[10],92%
same,activity at 10 µM,[11],114%
same,activity at 10 µM,"[12]; read-out: Activity (%), CK2(h)",91%
same,activity at 10 µM,"[12]; read-out: Activity (%), CK2α1(h)",94%
same,activity at 10 µM,[13],107%
same,activity at 10 µM,[14],97%
same,activity at 10 µM,[15],106%
same,activity at 10 µM,[16],93%
same,activity at 10 µM,[17],110%
same,activity at 10 µM,[18],80%
same,activity at 10 µM,[19],99%
same,activity at 10 µM,[20],85%
same,activity at 10 µM,[21],110%
same,activity at 10 µM,[22],101%
same,activity at 10 µM,[23],94%
same,activity at 10 µM,[24],92%
same,activity at 10 µM,[25],120%
